Laboratory results taken from US5441887A, “Rapid degradation of halogenated hydrocarbons by soluble methane monooxygenase” (Regents of the University of Minnesota, priority 1994, dated 1995).

Tests used:
[1] = tested on: Methylosinus trichosporium OB3b; experiment: Two-phase headspace assay of TCE degradation by continuously cultured Mt OB3b; assay type: cell-based
Description: Each culture of Mt OB3b was added in 2 ml quantities to 10 ml serum bottles. Bottles were sealed with 20 mm teflon-lined rubber septa. TCE was added to start the assay. Headspace accounted for 80% of total volume within bottles, but TCE concentration was added based on 2 ml aqueous phase. TCE resided principally in the headspace. All bottles were inverted in order to prevent possible TCE loss by trapping the compound in the headspace between the liquid phase and glass. Samples were incubated inverted at 30° C. with agitation (200 rpm on a platform shaker).
Headspace incubations were analyzed by direct injection of headspace into a gas chromatograph. This method may be performed without sacrificing a sample. It is important to prepare sound calibration curves for quantitation. The best method for external standardization is to prepare samples as if running an assay and heat-killing at 80° C. for 10 mins prior to TCE addition. Samples were incubated for 30 mins under test conditions to allow adequate time for TCE to partition among the numerous phases (air, water, cell material, and the like). Headspace samples were injected into a gas chromatograph using either FID or ECD. Numerous TCE concentrations were used to obtain a sound standardization curve.
Headspace assays of TCE degradation were conducted by adding bacterial cells from the continuous culture described in Example II or cells diluted with spent Higgins medium (2 mls) into assay vials (10 ml vials).
Rates were calculated from peak heights of recorder tracings from a gas chromatograph equipped with an electron capture detector.

Mt OB3b = experiment: TCE oxidation by Mt OB3b grown by conventional methods (shake flask); assay type: cell-based, Methylosinus trichosporium OB3b; conditions: initial TCE concentrations of one ppm or higher
methanotrophic bacteria = conditions: optimal conditions, prior reports; cited from earlier work
[2] = tested on: methane-utilizing mixed culture; conditions: Fogel et al.; cited from earlier work
[3] = tested on: methane-oxidizing bacteria; conditions: soil exposed to 0.6% natural gas in air for 3 weeks, TCE average 150 μg/l in influent; cited from earlier work
[4] = molecular target: T1, soluble methane monooxygenase (reductase, component B, hydroxylase) (Methylosinus trichosporium, UniProt P27353); experiment: Degradation of 14C-TCE by purified methane monooxygenase components with NADH, HPLC analysis; assay type: biochemical, Methylosinus trichosporium OB3b
T1 construct: The cells were disintegrated by sonication; made in house; host or cells: native protein purified from cell paste of the methane-oxidizing bacterium (no recombinant host given)
T1 sequence (P27353 1-526): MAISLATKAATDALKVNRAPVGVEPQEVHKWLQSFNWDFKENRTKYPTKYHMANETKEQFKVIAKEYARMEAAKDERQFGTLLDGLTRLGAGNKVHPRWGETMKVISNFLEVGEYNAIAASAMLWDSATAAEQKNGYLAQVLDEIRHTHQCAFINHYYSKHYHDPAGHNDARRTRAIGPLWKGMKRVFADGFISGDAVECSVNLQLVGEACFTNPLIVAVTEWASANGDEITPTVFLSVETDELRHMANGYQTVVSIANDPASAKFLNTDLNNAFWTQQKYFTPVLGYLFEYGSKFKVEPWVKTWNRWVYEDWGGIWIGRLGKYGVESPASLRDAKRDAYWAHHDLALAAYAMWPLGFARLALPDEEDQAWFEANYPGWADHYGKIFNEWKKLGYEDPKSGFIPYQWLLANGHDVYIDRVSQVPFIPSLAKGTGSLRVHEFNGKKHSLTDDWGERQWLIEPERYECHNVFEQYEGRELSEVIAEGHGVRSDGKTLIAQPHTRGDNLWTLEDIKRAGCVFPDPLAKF
T1 sequence (P27354 1-394 partner): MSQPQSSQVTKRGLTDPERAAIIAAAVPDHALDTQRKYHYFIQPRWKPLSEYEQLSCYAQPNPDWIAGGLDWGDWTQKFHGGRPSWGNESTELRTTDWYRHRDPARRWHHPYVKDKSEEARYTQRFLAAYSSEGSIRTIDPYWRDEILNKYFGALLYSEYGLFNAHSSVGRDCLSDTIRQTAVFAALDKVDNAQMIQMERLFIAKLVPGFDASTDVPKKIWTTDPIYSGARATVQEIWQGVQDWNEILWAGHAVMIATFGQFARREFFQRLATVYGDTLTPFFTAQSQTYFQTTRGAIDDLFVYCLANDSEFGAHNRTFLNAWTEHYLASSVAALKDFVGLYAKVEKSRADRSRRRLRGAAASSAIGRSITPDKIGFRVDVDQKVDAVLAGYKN
T1 sequence (P27355 1-169 partner): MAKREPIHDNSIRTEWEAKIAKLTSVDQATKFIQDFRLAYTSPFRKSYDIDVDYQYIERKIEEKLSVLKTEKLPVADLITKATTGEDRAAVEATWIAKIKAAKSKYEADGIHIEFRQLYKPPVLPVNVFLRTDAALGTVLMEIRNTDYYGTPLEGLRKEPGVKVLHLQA
Description: The three components of methane monooxygenase, reductase, component B, and hydroxylase, were purified by the method of Fox and Lipscomb, supra, the disclosure of which is hereby incorporated by reference. All purification procedures were performed at 4° C. The cell paste (100 g) was suspended in 200 ml of 25 mM MOPS, pH 7.0, containing 200 μ M Fe(NH4 )2 (SO4)2.6H2 O and 2 mM cysteine (Buffer A). The cells were disintegrated by sonication. The sonicated suspension was centrifuged at 48000×g for 60 min. The supernatant was decanted, diluted with an additional 100 ml of buffer A, and adjusted to pH 7.0. The cell free extract was immediately loaded onto a fast flow DEAE Sepharose CL-6B column (40 mm×250 mm) equilibrated with buffer A. The column was then washed with 600 ml of buffer A. All MMO components were completely adsorbed. The MMO components were eluted with a 2000 ml gradient of 0.0 to 0.40M NaCl in buffer A. The hydroxylase eluted at 0.075M NaCl. The two additional fractions required for reconstituted hydroxylase activity, component B and the reductase, eluted at 0.18M NaCl and 0.27M NaCl, respectively.
105 nmol of uniformly labelled ^14 C-TCE was added to each vial by injection through the rubber septum above the reaction mixture until a final TCE concentration of 70 μM was reached. The reaction was allowed to proceed for 2 min at 25° C. and then quenched by the addition of sulfuric acid (Sigma Chemical Company, St. Louis, Miss.) at pH 2.0.
Following centrifugation to remove precipitated protein, the reaction mixtures were analyzed by high pressure liquid chromatography (HPLC).

[5] = tested on: Methylosinus trichosporium OB3b; experiment: No-headspace (single phase) assay of TCE degradation by continuously cultured Mt OB3b; assay type: cell-based; conditions: for Rates: 0% methane, 10 min-15 min; for micromoles TCE removed · hr^-1 · g dry cells^-1: cells cultured with methane 45 ml/min, air 135 ml/min; for Micromoles TCE removed: culture 0.64 g cells/l
Description: Each culture of Mt OB3b was added to 1.8 ml serum bottle prewarmed to 30° C. and sealed with an 11 mm teflon-lined rubber septa. For comparisons requiring similar initial dissolved oxygen levels, anaerobic make-up media (usually 0.6 ml) was added to the bottles first and then the bottles were sealed. Air-saturated 30° C. Higgins media prepared as in Example I was added via gas-tight syringe (1.0 ml), while 1 atm pressure was maintained by allowing air to bleed through a 25 gauge needle. Finally, culture was added (concentrated to give desired density) while remaining headspace-was bled out through the 25 gauge needle. TCE was added with a syringe at the bottom of the sealed bottle, with a syringe at top of the bottle removing equivalent volume of culture. The assay time course was started with TCE (substrate) addition. Incubation was performed at 30° C. with agitation at 200 rpm on a platform shaker.
Assays were terminated by extraction at desired time points. The liquid-liquid extraction technique used 0.6 ml of pentane containing 1,2-dibromoethane as an internal standard added via gas-tight syringe to inverted assay bottle, while a second syringe with a needle below first needle level collected displaced solution. Partitioning was brought to equilibrium by centrifugation of bottles at 5000 rpm for 10 min. The organic layer was removed by gas-tight syringe and placed in a 1 ml serum bottle for chromatographic analysis. In some cases, dilution of sample or split injection was necessary. Electron-capture detection was preferred. The following gas chromatography operating parameters were used:
The following Tests 1, 2 and 3 were conducted according to the no-headspaceassay procedure described generally above. […]
In prewarmed (30° C.) 120 ml serum bottles, 1 ml of Mt OB3b cell suspension grown in a chemostat (A600 =1.460) were mixed with 9 mls of 30° C. Higgins media prepared as in Example I. One bottle was prepared by adding "spent" media from the chemostat (decant media after pelleting cells with centrifugation--10,000 rpm for 10 minutes) rather than fresh Higgins media. The bottles were sealed with 20 mm teflon-lined rubber septa, evacuated and refilled with air (0% methane). One bottle was heat-killed and used as a control.
1.76 ml of Mt OB3b cell suspension was added to sealed 1.8 ml serum bottles (25 gauge needle used to equilibrate pressure). 45 μl of 4 mM TCE stock were added to start the assay. Bottles were incubated at 30° C. with agitation on a shaker bath. Bottles were sacrificed at 2.5, 5.0, 10.0, 15.0 and 20.0 mins by displacing 0.6 ml aqueous solution with pentane containing 1 ppm 1,2-dibromoethane as an internal standard. Analysis was performed on a HP 5790A GC using ECD.

[6] = tested on: Methylococcus capsulatus Bath; conditions: aerobe Methylococcus capsulatus Bath; cited from earlier work

SMILES: ClC=C(Cl)Cl [TCE, 1,1,2-trichloroethene]
- Rate, micromoles TCE oxidized · g cells^-1 · hr^-1 ([1]; cell density .070 g·l^-1, initial TCE 22 micromolar): 808 micromoles TCE oxidized·g cell
- Rate, micromoles TCE oxidized · g cells^-1 · hr^-1 ([1]; cell density .173 g·l^-1, initial TCE 23 micromolar): 461 micromoles TCE oxidized·g cell
- Rate, micromoles TCE oxidized · g cells^-1 · hr^-1 ([1]; cell density .347 g·l^-1, initial TCE 22 micromolar): 465 micromoles TCE oxidized·g cell
- Rate, micromoles TCE oxidized · g cells^-1 · hr^-1 ([1]; cell density .521 g·l^-1, initial TCE 22 micromolar): 308 micromoles TCE oxidized·g cell
- Rate, micromoles TCE oxidized · g cells^-1 · hr^-1 ([1]; cell density .695 g·l^-1, initial TCE 22 micromolar): 281 micromoles TCE oxidized·g cell
- Rate of TCE degradation ([1]; low cell densities, initial TCE 80 μM, culture cell mass 0.825 g/l (FIG. 1)): 1200 micromoles TCE removed.hr^-1.g cells^-1
- Removal at which oxidation of TCE ceased (Mt OB3b): about 50%
- Rates of TCE degradation reported (methanotrophic bacteria): exceed 100 μmoles per hour per gram of cells
- Rate of TCE degradation [2]: approximately 2.5 μmoles per hour per gram of cells
- Applied TCE passing through the soil [3]: less than 5%
- Products of TCE oxidation ([4]; 70 μM 14C-TCE, 2 min at 25° C., HPLC): formic acid, glyoxylic acid, dichloroacetic acid, and chloral
- TCE converted to HPLC-detectable products ([4]; 70 μM 14C-TCE, 2 min at 25° C., reductase 110 μg, component B 13 μg, hydroxylase 250 μg, NADH 0.1 mM): 53%
- Products of TCE oxidation in control incubations ([4]; each one of the methane monooxygenase components or NADH omitted): no products of TCE oxidation were detectable
- Rate of TCE-utilization (no headspace assay) ([5]; Test 1, culture turbidity A600 1.310): 336 μmoles·hr^-1·g cells^-1
- Rate of TCE-utilization (no headspace assay) ([5]; Test 2, culture turbidity A600 1.410): 1070 μmoles·hr^-1·g cells^-1
- Rate of TCE-utilization (no headspace assay) ([5]; Test 3, culture turbidity A600 1.460): 2400 μmoles·hr^-1·g cells^-1
- Rate when most rapid oxidation of TCE occurred ([5]; Test 3, times of most rapid oxidation): approximately 3500 μmoles/h^-1.g cells^-1
- Rates ([5]; Test 3 Run 2, 1/10 dilution in Higgins media): 3200 μmoles·h^-1·g cells^-1
- Rates ([5]; Test 3 Run 3, 1/10 dilution in spent Higgins media from chemostat): 3960 μmoles·h^-1·g cells^-1
- micromoles TCE removed · hr^-1 · g dry cells^-1 ([5]; concentration of TCE 10 μM): 829 micromoles TCE removed·hr^-1·g
- micromoles TCE removed · hr^-1 · g dry cells^-1 ([5]; concentration of TCE 25 μM): 1104 micromoles TCE removed·hr^-1·g
- micromoles TCE removed · hr^-1 · g dry cells^-1 ([5]; concentration of TCE 50 μM): 1194 micromoles TCE removed·hr^-1·g
- Micromoles TCE removed ([5]; concentration of TCE 40 μm, 5-10 min.): 2.96 µmol/min
- Micromoles TCE removed ([5]; concentration of TCE 80 μm, 5-10 min.): 5.69 µmol/min
- Micromoles TCE removed ([5]; concentration of TCE 80 μm, 10-15 min.): 3.03 µmol/min
- Micromoles TCE removed ([5]; concentration of TCE 320 μm, 5-10 min.): 15.54 µmol/min
- Micromoles TCE removed ([5]; concentration of TCE 320 μm, 10-15 min.): 10.2 µmol/min
- Micromoles TCE removed ([5]; concentration of TCE 640 μm, 10-25 min.): 10.48 µmol/min
- Km ([5]; concluded from Table VIII and other experiments, read-out: Ks for TCE oxidation): ~5 µM
- Rate of TCE oxidation ([5]; methane added 5% saturation, cell density approx. 0.16 g/l, nominal initial TCE 80 μM): 3350 μmoles·hr^-1·g cells^-1
- Rate of TCE oxidation ([5]; methane added 10% saturation, cell density approx. 0.16 g/l, nominal initial TCE 80 μM): 3000 μmoles·hr^-1·g cells^-1
- Rate of TCE oxidation ([5]; methane added 20% saturation, cell density approx. 0.16 g/l, nominal initial TCE 80 μM): 875 μmoles·hr^-1·g cells^-1
- Rate of TCE oxidation ([5]; methane added 50% saturation, cell density approx. 0.16 g/l, nominal initial TCE 80 μM): 110 μmoles·hr^-1·g cells^-1
- Rate of TCE oxidation ([5]; methane added: none, cell density approx. 0.16 g/l, nominal initial TCE 80 μM): 660 μmoles·hr^-1·g cells^-1
- Rate of TCE oxidation ([5]; some cell batches, without any methane present): approximately 4000 micro-moles.hr^-1.g cells^-1
- Rate at which cells are believed able to oxidize TCE ([5]; under optimal conditions, belief, extrapolated): 10,000 μmoles.h^-1.g cells^-1

SMILES: ClC(Cl)Cl [chloroform]
- Oxidation rate [6]: 35 nano-moles per gram of cells per minute
